Laboratory results from the supplement of paper PMC10307832.

Experiments:
Experiment in all cases: relative viability (nuclei count vs DMSO), 5 days (fraction); higher = more cells survive
[1] = compound: CC1=CC(=NN1)NC2=CC(=NC(=N2)/C=C/C3=CC=CC=C3)N4CCN(CC4)C + CS(=O)(=O)CCNCc1ccc(-c2ccc3ncnc(Nc4ccc(OCc5cccc(F)c5)c(Cl)c4)c3c2)o1 [Lapatinib] (partner 2 µM)
Method in brief: (§1)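 Relative viability divides the nuclei count in treated wells by that in vehicle wells. Lung cancer cell lines were seeded in 1536-well plates, dosed by pin tool the next day, and fixed and stained after 5 days in one step with final 0.05% Triton X-100, 1% formaldehyde and 1 ug/ml Hoechst. Dosing was a single drug or a fixed anchor-drug dose plus five library-drug doses (not always all listed) in √10 steps, and values are medians of duplicate plates imaged at 4×.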

[2] = compound: CC1=CC(=NN1)NC2=CC(=NC(=N2)/C=C/C3=CC=CC=C3)N4CCN(CC4)C + C[C@@H](Oc1cc(-c2cnn(C3CCNCC3)c2)cnc1N)c1c(Cl)ccc(F)c1Cl [Crizotinib] (partner 1 µM)
Method in brief: as §1

[3] = compound: CC1=CC(=NN1)NC2=CC(=NC(=N2)/C=C/C3=CC=CC=C3)N4CCN(CC4)C + CCNC(=O)c1noc(-c2cc(C(C)C)c(O)cc2O)c1-c1ccc(CN2CCOCC2)cc1 [Luminespib] (partner 0.01 µM)
Method in brief: as §1

Cell Line	relative viability ([1]; first compound 0.08 µM)	relative viability ([1]; first compound 0.253 µM)	relative viability ([1]; first compound 0.8 µM)	relative viability ([1]; first compound 2.53 µM)	relative viability ([1]; first compound 8 µM)	relative viability ([2]; first compound 0.08 µM)	relative viability ([2]; first compound 0.253 µM)	relative viability ([2]; first compound 0.8 µM)	relative viability ([2]; first compound 2.53 µM)	relative viability ([2]; first compound 8 µM)	relative viability ([3]; first compound 0.08 µM)	relative viability ([3]; first compound 0.253 µM)	relative viability ([3]; first compound 0.8 µM)	relative viability ([3]; first compound 2.53 µM)	relative viability ([3]; first compound 8 µM)
NCI-H1563	0.905	0.784	0.91	0.667	0.403	0.985	0.896	0.904	0.65	0.614	0.498	0.554	0.537	0.553	0.434
NCI-H1650	0.775	0.739	0.946	0.109	0.0756	1.07	1.05	0.63	0.192	0.109	0.19	0.184	0.206	0.203	0.183
NCI-H1651	0.924	0.941	0.803	0.313	0.123	0.839	0.911	0.808	0.738	0.482	0.754	0.854	0.912	0.643	0.244
NCI-H1666	0.738	0.549	0.669	0.416	0.131	0.969	0.863	0.822	0.453	0.187	0.987	1.01	1.02	0.985	0.328
NCI-H1734	0.968	1.06	0.958	0.577	0.145	0.632	0.722	0.522	0.331	0.123	0.178	0.236	0.163	0.145	0.109
NCI-H1755	1.06	1.12	1.01	0.535	0.143	0.863	0.929	0.78	0.593	0.105	0.496	0.416	0.748	0.346	0.157
NCI-H1792	0.862	0.861	0.892	0.841	0.145	0.942	0.982	0.966	0.815	0.165	0.407	0.375	0.412	0.319	0.122
NCI-H1915	0.972	1.01	0.954	0.453	0.514	0.868	0.92	0.869	0.593	0.248	0.772	0.868	0.745	0.471	0.12
NCI-H1944	0.837	0.931	0.865	0.655	0.29	1.04	1.24	1.11	0.62	0.275	0.63	1.06	0.815	0.553	0.164
NCI-H1975	0.933	0.923	0.894	0.203	0.149	0.91	0.958	0.548	0.186	0.147	0.178	0.28	0.199	0.151	0.118
NCI-H1993	0.76		0.772	0.605	0.561	0.883		0.739	0.551	0.526	0.882	0.944	0.843	0.779	0.391
NCI-H2009	0.907	0.628	1.03	0.451	0.189	1.06	0.94	1.02	0.534	0.22	0.989	1.04	0.987	1.05	0.2
NCI-H2023	0.849	0.92	0.765	0.0727	0.0496	0.631	0.611	0.343	0.0794	0.0532	0.741	1.12	0.524	0.0645	0.0624
NCI-H2085	0.633	0.804	0.841	0.452	0.309	0.859	0.831	0.753	0.343	0.266	0.358	0.417	0.438	0.318	0.184
NCI-H2087	1.01	1.02	1.03	0.582	0.188	0.968	0.58	0.769	0.567	0.179	0.209	0.212	0.158	0.119	0.136
NCI-H2126	0.729	0.813	0.713	0.629	0.464	1.01	1	0.994	0.916	0.529	0.934	1.01	0.882	0.812	0.224
NCI-H2170	0.277	0.255	0.244	0.199	0.166	1.23	1.13	1.12	0.434	0.16	0.705	0.692	0.688	0.444	0.14
NCI-H2228	1.16	0.85	0.685	0.103	0.0435	0.586	0.45	0.33	0.0992	0.0441	0.178	0.143	0.139	0.128	0.054
NCI-H2347	0.908	0.95	1.04	0.938	0.99	0.855	0.784	0.545	0.573	0.262	0.524	0.371	0.501	0.389	0.22
NCI-H2405	1.09	0.87	1.22	0.696	0.133	0.868	0.818	0.803	0.694	0.202	0.845	0.827	0.655	0.526	0.186
NCI-H3122	0.971	0.859	1.03	0.925	0.897	0.285	0.318	0.253	0.268	0.168	0.0829	0.0907	0.096	0.0908	0.0887
PC-3 [JPC-3]	0.445	0.46	0.466	0.408	0.368	0.931	1	0.917	0.878	0.74	0.684	0.834	0.736	0.686	0.549
PC-14	0.334	0.374	0.278	0.248	0.0886	0.831	1	0.872	0.494	0.0811	0.169	0.158	0.12	0.121	0.0829
RERF-LC-KJ	0.878	0.875	0.839	0.716	0.292	0.832	0.82	0.747	0.617	0.234	1.33	1.2	0.944	0.269	0.264
SK-LU-1	0.861	0.959	0.699	0.386	0.116	1.01	0.792	0.725	0.274	0.137	0.204	0.192	0.136	0.148	0.0748
SK-MES-1	0.44	0.52	0.453	0.329	0.146	0.96	1.01	0.903	0.422	0.133	0.61	0.888	0.391	0.144	0.131
SW 1573	1.08	1.34	1.11	0.906	0.134	0.886	0.829	0.604	0.194	0.1	0.421	0.259	0.179	0.105	0.0707
UMC-11	0.9	0.758	0.63	0.152	0.128	0.519	0.528	0.41	0.0737	0.062	0.903	0.996	0.715	0.182	0.125
